Reference: patent US20180296523A1, “USE OF POLYMETHOXYLATED FLAVONES TO AMELIORATE CIRCADIAN RHYTHM DISORDERS” (THE BOARD OF REGENTS OF THE UNIVERSITY OF TEXAS SY, priority 2017, published 2018)

Test system: WT and Clock^Δ19/Δ19 mice
Assay: Circadian locomotor (wheel-running) activity
Type: in vivo, mouse
From the text: RC-fed WT, HFD-fed WT and Clock^[…]/[…] mice with NOB or Vehicle treatment were used for circadian locomotor activity experiments. Briefly, mice were first maintained for at least 2 weeks in a 12 hr:12 hr light:dark (LD) cycle, then released into the constant darkness, free-running condition. The mice were then maintained in constant darkness for another 2 weeks. Wheel-running data was downloaded as VitalView data files and analyzed with the […] and Actogram J program (Schmid et al., 2011; Zheng et al., 1999).

## COc1ccc(-c2cc(=O)c3c(OC)c(OC)c(OC)c(OC)c3o2)cc1OC [nobiletin]
HFD-fed Clock^Δ19/Δ19 mice
  wheel-running activity levels: no significant difference in activity levels
HFD-fed WT mice, vs control treatment
  wheel-running activity levels: greatly increased wheel-running activity levels
RC-fed WT C57/6J mice
  wheel-running activity and periodicity: normal wheel-running activity and periodicity
